Structures are written as SMILES.

The target of this assay is TEK receptor tyrosine kinase (Homo sapiens, UniProt Q02763). Description: phospho-TEK ELISA on lysates of Ang1-stimulated HUVECs. In kind it is cell-based.
Sequence of TEK receptor tyrosine kinase (Q02763 23-1124): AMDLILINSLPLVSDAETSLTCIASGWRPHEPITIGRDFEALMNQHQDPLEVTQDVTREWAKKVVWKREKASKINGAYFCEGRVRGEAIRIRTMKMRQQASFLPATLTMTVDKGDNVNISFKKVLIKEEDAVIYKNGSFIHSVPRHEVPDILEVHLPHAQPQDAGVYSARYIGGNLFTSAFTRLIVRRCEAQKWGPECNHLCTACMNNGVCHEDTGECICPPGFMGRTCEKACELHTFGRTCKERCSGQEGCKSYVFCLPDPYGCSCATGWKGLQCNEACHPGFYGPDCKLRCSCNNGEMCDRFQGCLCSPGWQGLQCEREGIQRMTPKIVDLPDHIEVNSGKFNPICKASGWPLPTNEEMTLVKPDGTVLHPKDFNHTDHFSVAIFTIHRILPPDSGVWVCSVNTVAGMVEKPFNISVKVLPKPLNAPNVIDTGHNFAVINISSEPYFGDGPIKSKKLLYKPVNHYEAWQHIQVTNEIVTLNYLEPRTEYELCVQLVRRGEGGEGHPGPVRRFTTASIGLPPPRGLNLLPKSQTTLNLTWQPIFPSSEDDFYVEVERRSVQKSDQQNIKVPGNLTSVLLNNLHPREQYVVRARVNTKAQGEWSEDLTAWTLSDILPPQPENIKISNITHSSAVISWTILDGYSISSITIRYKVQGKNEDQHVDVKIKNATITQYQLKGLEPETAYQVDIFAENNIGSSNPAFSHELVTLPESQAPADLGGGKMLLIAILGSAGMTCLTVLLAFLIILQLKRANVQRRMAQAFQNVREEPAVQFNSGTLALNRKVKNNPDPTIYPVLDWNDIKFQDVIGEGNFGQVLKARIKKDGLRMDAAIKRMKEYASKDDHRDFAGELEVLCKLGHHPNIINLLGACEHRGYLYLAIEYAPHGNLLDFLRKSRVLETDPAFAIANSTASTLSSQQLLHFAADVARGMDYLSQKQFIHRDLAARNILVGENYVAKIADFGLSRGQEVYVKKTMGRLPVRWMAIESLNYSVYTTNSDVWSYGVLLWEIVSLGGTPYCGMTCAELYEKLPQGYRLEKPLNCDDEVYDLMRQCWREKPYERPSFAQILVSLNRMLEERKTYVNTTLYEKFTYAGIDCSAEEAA

As a reminder, the IC50 is the point on the concentration scale where inhibition reaches its midpoint. The low end stands for greater potency, the high end for weaker potency. With `c1cc(-c2cnn3cc(-c4ccc(OCCN5CCCCC5)cc4)cnc23)ccn1` [DM, Dorsomorphin], 4.72 µM corresponded to half-maximal inhibition (IC50).

Source of the values: PMC10480310 (iScience, 2023).
